PMC6647725 (Analytical and Bioanalytical Chemistry, 2019)

How the values were obtained:
CDK6 = conditions: cited from earlier work
[1] = Stability in tissue homogenates; format: in vitro ADME, mouse; conditions: room temperature and ice/water bath
Experimental: (§1) The stability of each analyte was investigated in all the previously mentioned matrices. For plasma (both human and mouse), the stability was determined in triplicate at two concentration levels, QC L and QC H, whereas for mouse tissue homogenates only at QC M (except the brain in one stability condition). For all matrices, the following stability conditions were assessed: short term at room temperature (RT), long term at − 20 °C, and after 3 freeze-thaw (F/T) cycles at − 20 °C/RT. Furthermore, for tissue homogenates, the short-term stability in ice-water, long-term stability at − 70 °C, and F/T stability at − 70 °C/ice-water were also evaluated. Additionally, the stability in the final extract was tested. For this, the QC L and QC H final extracts from the plasma, brain, and spleen and the QC M final extract from the liver, kidney and small intestine were stored at 4–8 °C up to 3 days. Lastly, the stability of the stock solutions at − 20 °C was investigated.

[2] = Stability of stock solutions at − 20 °C; format: physicochemical; conditions: 1 mg/mL stock solution, storage at − 20 °C
Experimental: as §1

[3] = Plasma pharmacokinetics in mice after oral administration; format: in vivo, mouse (FVB); conditions: FVB, po; mouse plasma, 10 mg/kg orally administered, t = 2 h; read-out: plasma concentration of representative sample
Experimental: This method was developed to support pharmacokinetic and tissue distribution studies of the CDK4/6 inhibitors in mice (FVB background). These studies were done separately for each drug. Animal housing and studies were conducted according to institutional guidelines complying with Dutch and European Union legislation (approval number from The Dutch Central Animal Testing Committee: AVD301002016595). […] Approximately 50 μL of blood was collected from the tip of the tail at several time points, except at the last one, when 500–1000 μL of blood was collected by cardiac puncture under isoflurane anesthesia. […] Mice were sacrificed by cervical dislocation and the organs were collected and weighed. Plasma was obtained using sodium heparin as anticoagulant after centrifugation at 9000g, 4 °C, for 6 min. When necessary, 10 μL of mouse plasma was diluted with 40 μL of human plasma. The tissue homogenates were prepared according to the procedure described in the “Tissue homogenate preparation” section. Plasma and tissue homogenate samples were stored at − 20 and − 70 °C, respectively, until the LC-MS/MS analysis was performed.

CDK4 = conditions: cited from earlier work

concentration at 2 h [3]: 311 ng/mL
Compound: CC(=O)c1c(C)c2cnc(Nc3ccc(N4CCNCC4)cn3)nc2n(C2CCCC2)c1=O [Palbociclib]
IC50 (CDK6): 15 nM
